Structures can show the parent of a compound that is named as a salt. Activity calls are given as the source filed them. The rule behind the calls is not given here.
Columns and labels:
[1] = Inhibition of biotinylated 5-(4-((Z)-3-Carboxy-3-hydroxyacryloyl)-4-(4-chlorobenzyl)piperidine-1-carbonyl)-2-((13,35-dioxo-39-((3aR,4R,6aS)-2-oxohexahydro-1H-thieno[3,4-d]imidazole-4-yl)-3,6,9,16,19,22,25,28,31-nonaoxa-12,34-diazanonatriacontyl)oxy)benzoic acid binding to Influenza A virus (A/California/07/2009(H1N1)) N-terminal GST-tagged polymerase acidic subunit N-terminal domain expressed in Escherichia coli BL21 (DE3) RIL cells measured after 120 mins by Alphascreen assay
[2] = test system: Influenza A virus (A/California/07/2009(H1N1)); experiment: Inhibition of Influenza A virus (A/California/07/2009(H1N1)) neuraminidase at 400 uM by DNA-linked inhibitor antibody assay
[3] = test system: Influenza A virus (A/California/07/2009(H1N1)); experiment: (§1) Inhibition of endonuclease activity of Influenza A virus (A/California/07/2009(H1N1)) N-terminal GST-tagged polymerase acidic subunit N-terminal domain expressed in Escherichia coli BL21 (DE3) RIL cells using single-stranded circular DNA M13mp18 as substrate measured after 4 hrs by GelRed-staining based agarose gel electrophoresis
[4] = test system: Influenza A virus
Description: Antiviral activity against Influenza A virus (A/Puerto Rico/8/1934(H1N1)) assessed as reduction in viral transcription

[5] = Inhibition of Influenza A virus (A/California/07/2009(H1N1)) neuraminidase by DNA-linked inhibitor antibody assay
[6] = test system: Influenza A virus (A/California/07/2009(H1N1)); experiment: as §1, with “cells at 0.01 to 100 uM” for “cells”; conditions: dose 0.01-100 µM

Row | Compound | IC50 [1] [µM] | other results
1 | O=C(/C=C(O)/C=C/c1ccc(O)c(O)c1)/C=C/c1ccc(O)c(O)c1 | 1.7 | inhibition [2]: inactive; inhibition [3]: Active
2 | O=C(/C=C(O)/C=C/c1ccc(O)cc1)/C=C/c1ccc(O)cc1 | > 50 | 
3 | O=C1C=C(O)C(=O)c2c(O)c(O)cc(O)c21 | 0.43 | 
4 | COc1cc(OC)c2c(=O)c(OC)c(-c3ccc(OC)c(OC)c3)oc2c1 | > 50 | 
5 | COc1cc(OC)c2c(=O)cc(-c3cc(OC)c(OC)c(OC)c3)oc2c1 | 1.8 | 
6 | O=c1cc(-c2ccc(O)c(O)c2)oc2ccccc12 | 2.4 | 
7 | O=c1cc(-c2ccccc2O)oc2cc(O)cc(O)c12 | > 50 | 
8 | O=c1cc(-c2ccc(O)c(O)c2)oc2cccc(O)c12 | 1.3 | 
9 | O=c1cc(-c2cccc(O)c2)oc2cc(O)cc(O)c12 | > 50 | 
10 | O=C(O)/C(O)=C/C(=O)C1(Cc2ccc(Cl)cc2)CCN(Cc2ccccc2)CC1 | 0.026 | IC50 [4]: 0.43 µM
11 | COc1cc([C@@H]2[C@H]3CO[C@@]4(C)C(=O)[C@@H]2C=C([C@H]2Oc5cc(O)cc(O)c5C(=O)[C@@H]2O)[C@@H]34)ccc1O | > 50 | 
12 | O=c1cc(-c2ccc(O)c(O)c2)[nH]c2cc(O)cc(O)c12 |  | inhibition [3]: Active
13 | O=C(c1ccc(O)c(O)c1)C1(O)Oc2cc(O)cc(O)c2C1=O (stereo not drawn) | 9.8 | 
14 | O=c1c(O)c(-c2ccc(O)c(O)c2)[nH]c2cc(O)cc(O)c12 | 0.2 | 
15 | CCCCC(=O)C1=C(O)C(=O)c2c(O)c(O)cc(O)c2C1=O | 0.29 | inhibition [2]: inactive; inhibition [3]: Active
16 | O=C(NC(O)C(=O)O)c1ccccc1 (stereo not drawn) | > 50 | 
17 | O=c1cc(-c2cccc(O)c2O)oc2cc(O)cc(O)c12 | 17 | 
18 | O=c1cc(-c2cccc(O)c2)oc2cccc(O)c12 | > 50 | 
19 | C[C@@H]1O[C@@H](Oc2c(-c3cc(O)c(O)c(O)c3)oc3cc(O)cc(O)c3c2=O)[C@H](O)[C@H](O)[C@H]1O | 1.8 | 
20 | O=C1c2c(O)cc(O)cc2O[C@H](c2ccc(O)c(O)c2)[C@H]1O [(+)-TAXIFOLIN] | 50 | 

Row | Compound | IC50 [1] [µM] | other results
21 | Oc1cc(O)c2c(c1)O[C@@H](c1ccc(O)c(O)c1)[C@H](O)C2 [(-)-CATECHIN] | > 50 | 
22 | Oc1cc(O)c2c(c1)O[C@H](c1ccc(O)c(O)c1)[C@H](O)C2 [(-)-EPICATECHIN] | > 50 | 
23 | O=C1c2c(O)cc(O)cc2O[C@H](c2cc(O)c(O)c(O)c2)[C@H]1O [AMPELOPSIN] | 22 | 
24 | O=c1cc(-c2ccc(O)cc2)oc2cc(O)cc(O)c12 [APIGENIN] | > 50 | 
25 | O=C1c2c(O)c(=O)ccn2N([C@@H]2c3ccccc3SCc3c2ccc(F)c3F)[C@@H]2COCCN12 [BALOXAVIR] | 0.024 | 
26 | O=C(/C=C/c1ccc(O)c(O)c1)O[C@@H]1C[C@](O)(C(=O)O)C[C@@H](O)[C@H]1O [CHLOROGENIC ACID] | > 50 | inhibition [2]: inactive
27 | Oc1cc(O)c2c(c1)O[C@H](c1ccc(O)c(O)c1)[C@@H](O)C2 [CIANIDANOL] | 42 | 
28 | COc1cc(/C=C/C(=O)CC(=O)/C=C/c2ccc(O)c(OC)c2)ccc1O [CURCUMIN] | 25 | 
29 | COc1ccc(/C=C/C(=O)/C=C(O)/C=C/c2ccc(OC)c(OC)c2)cc1OC [DIMETHYLCURCUMIN] | > 50 | 
30 | COc1ccc(-c2cc(=O)c3c(O)cc(O)cc3o2)cc1O [DIOSMETIN] | > 50 | 
31 | Oc1cc(O)c2c(c1)O[C@H](c1cc(O)c(O)c(O)c1)[C@H](O)C2 [EPIGALLOCATECHIN] | 3.3 | 
32 | O=C(O[C@@H]1Cc2c(O)cc(O)cc2O[C@@H]1c1cc(O)c(O)c(O)c1)c1cc(O)c(O)c(O)c1 [EPIGALOCATECHIN GALLATE] | 0.87 | inhibition [2]: inactive; inhibition [3]: Active
33 | O=C1C[C@@H](c2ccc(O)c(O)c2)Oc2cc(O)cc(O)c21 [ERIODICTYOL] | 18 | 
34 | COc1c(O)cc2oc(-c3ccc(O)c(O)c3)cc(=O)c2c1O [EUPAFOLIN] | 0.93 | 
35 | Oc1ccc(C2CNCCc3c2cc(O)c(O)c3Cl)cc1 (stereo not drawn) [FENOLDOPAM MESYLATE] | 31 | 
36 | O=c1c(O)c(-c2ccc(O)c(O)c2)oc2cc(O)ccc12 [FISETIN] | 0.96 | 
37 | O=c1cc(-c2ccc(O)c(O)c2)oc2cc(O[C@@H]3O[C@H](CO)[C@@H](O)[C@H](O)[C@H]3O)cc(O)c12 [GALUTEOLIN] | 32 | 
38 | O=c1c(-c2ccc(O)cc2)coc2cc(O)cc(O)c12 [GENISTEIN] | > 50 | 
39 | Cc1cc2c(C(C)C)c(O)c(O)c(C=O)c2c(O)c1-c1c(C)cc2c(C(C)C)c(O)c(O)c(C=O)c2c1O [GOSSYPOL] | 13 | 
40 | O=c1c(O[C@@H]2OC[C@H](O)[C@H](O)[C@H]2O)c(-c2ccc(O)c(O)c2)oc2cc(O)cc(O)c12 [GUAJAVERIN] | 17 | 

Row | Compound | IC50 [1] [µM] | other results
41 | O=c1cc(-c2ccc(O)c(O)c2)oc2cc(O)c([C@@H]3O[C@H](CO)[C@@H](O)[C@H](O)[C@H]3O)c(O)c12 [ISOORIENTIN] | > 50 | 
42 | O=c1c(O)c(-c2ccc(O)cc2)oc2cc(O)cc(O)c12 [KAEMPFEROL] | 16 | 
43 | CC(C)=CCC1=C(O)C(=O)c2ccccc2C1=O [LAPACHOL] | 19 | 
44 | O=c1cc(-c2ccc(O)c(O)c2)oc2cc(O)cc(O)c12 [LUTEOLIN] | 0.072 | inhibition [2]: inactive; inhibition [3]: Active
45 | O=c1c(O)c(-c2ccc(O)cc2O)oc2cc(O)cc(O)c12 [MORIN] | 9 | 
46 | O=c1c(O)c(-c2cc(O)c(O)c(O)c2)oc2cc(O)cc(O)c12 [MYRICETIN] | 0.76 | inhibition [2]: inactive; inhibition [3]: Active
47 | CCn1cc(C(=O)O)c(=O)c2ccc(C)nc21 [NALIDIXIC ACID] | > 50 | 
48 | O=C1N[C@@H]2C(=C[C@H](O)[C@@H](O)[C@H]2O)c2cc3c(c(O)c21)OCO3 [NARCICLASINE] | > 50 | 
49 | O=c1cc(-c2ccc(O)c(O)c2)oc2c([C@@H]3O[C@H](CO)[C@@H](O)[C@H](O)[C@H]3O)c(O)cc(O)c12 [ORIENTIN] | 0.043 | 
50 | CCC(CC)O[C@@H]1C=C(C(=O)O)C[C@H](N)[C@H]1NC(C)=O [OSELTAMIVIR CARBOXYLATE] |  | Ki [5]: 0.039 µM
51 | O=c1c(O)cccc2cc(O)c(O)c(O)c12 [PURPUROGALLIN] | 1.5 | 
52 | O=c1c(O)c(-c2ccc(O)c(O)c2)oc2cc(O)cc(O)c12 [QUERCETIN] | 0.67 | inhibition [2]: inactive; inhibition [6]: Active
53 | COc1cc(O)c2c(=O)c(OC)c(-c3ccc(OC)c(OC)c3)oc2c1 [RETUSIN] | > 50 | 
54 | COc1cc([C@@H]2Oc3c(O)cc([C@H]4Oc5cc(O)cc(O)c5C(=O)[C@@H]4O)cc3[C@H]2CO)ccc1O [SILICRISTIN A] | > 50 | 
55 | COc1cc([C@H]2Oc3cc([C@H]4Oc5cc(O)cc(O)c5C(=O)[C@@H]4O)ccc3O[C@@H]2CO)ccc1O [SILYBIN A] | > 50 | 
56 | O=c1oc(-c2ccc(O)c(O)c2)cc2cccc(O)c12 [THUNBERGINOL A] | 1.4 | 
57 | O=c1cc(-c2cc(O)c(O)c(O)c2)oc2cc(O)cc(O)c12 [TRICETIN] | 0.16 | 
58 | O=c1cc(-c2ccc(O)cc2)oc2c([C@@H]3O[C@H](CO)[C@@H](O)[C@H](O)[C@H]3O)c(O)cc(O)c12 [VITEXIN] | 1.9 | inhibition [2]: inactive
